This note sets out measurements from US9410148B2, “Method for constructing libraries of non-standard peptide compounds comprising N-methyl amino acids and other special (non-standard) amino acids and method for searching and identifying active species” (THE UNIVERSITY OF TOKYO, priority 2010, dated 2016).

Test [1] addresses T1, E6AP-HECT (Homo sapiens, UniProt Q05086).
T1 construct: The C terminal domain of E6AP, consisting of about 350 amino acid residues, is called the HECT
T1 sequence (Q05086 495-852 isoform Q05086-2 limits assumed): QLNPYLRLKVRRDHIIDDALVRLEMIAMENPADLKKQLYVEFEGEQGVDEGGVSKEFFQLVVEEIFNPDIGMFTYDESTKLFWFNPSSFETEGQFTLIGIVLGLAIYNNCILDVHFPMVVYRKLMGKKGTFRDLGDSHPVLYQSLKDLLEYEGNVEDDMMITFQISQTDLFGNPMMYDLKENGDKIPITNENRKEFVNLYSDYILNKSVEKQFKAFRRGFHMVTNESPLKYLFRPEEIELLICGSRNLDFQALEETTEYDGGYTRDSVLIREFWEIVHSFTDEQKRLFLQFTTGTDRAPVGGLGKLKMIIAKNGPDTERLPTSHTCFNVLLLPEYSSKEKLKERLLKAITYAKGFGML
In words: Determination of binding constant using SPR (BIACORE T100, streptavidin sensor chip). On the procedure:
The binding constant of MCP11 to E6AP-HECT was analyzed by a surface plasmon resonance using BIACORE T100.
A streptavidin sensor chip (SA chip certified) was used as a sensor chip, an Avi-His-GB1-E6AP-HECT was used as a ligand, and MCP11 was used as an analyte. After E6AP-HECT was fixed to a sensor chip, the KD of MCP11 was 0.5 nM.
(In general: Surface plasmon resonance follows binding to a sensor surface in real time, without labels.)

In test [2] the target is T2, E6AP-HECT (Homo sapiens, UniProt Q05086).
T2 construct: The C terminal domain of E6AP, consisting of about 350 amino acid residues, is called the HECT
In words: KD / nM. The source says:
Table printed on a drawing sheet, Figure 5-4
Head of the field: KD / nM
Biotinylated E6AP-HECT was fixed to the streptavidin chip to analyze affinity using the peptides. (Example 7)
First copying reader's note: Brackets drawn under MCP11 and CP11 link the N-terminal CH2CO to the second Cys (cyclic peptides); the raised Me marks and underlining denote N-methyl residues.
Where the first naming reader finds the target: description_of_the_figure: Biotinylated E6AP-HECT was fixed to the streptavidin chip to analyze affinity using the peptides.
T2 sequence (Q05086 whole entry, looked up, the tested form may be a part): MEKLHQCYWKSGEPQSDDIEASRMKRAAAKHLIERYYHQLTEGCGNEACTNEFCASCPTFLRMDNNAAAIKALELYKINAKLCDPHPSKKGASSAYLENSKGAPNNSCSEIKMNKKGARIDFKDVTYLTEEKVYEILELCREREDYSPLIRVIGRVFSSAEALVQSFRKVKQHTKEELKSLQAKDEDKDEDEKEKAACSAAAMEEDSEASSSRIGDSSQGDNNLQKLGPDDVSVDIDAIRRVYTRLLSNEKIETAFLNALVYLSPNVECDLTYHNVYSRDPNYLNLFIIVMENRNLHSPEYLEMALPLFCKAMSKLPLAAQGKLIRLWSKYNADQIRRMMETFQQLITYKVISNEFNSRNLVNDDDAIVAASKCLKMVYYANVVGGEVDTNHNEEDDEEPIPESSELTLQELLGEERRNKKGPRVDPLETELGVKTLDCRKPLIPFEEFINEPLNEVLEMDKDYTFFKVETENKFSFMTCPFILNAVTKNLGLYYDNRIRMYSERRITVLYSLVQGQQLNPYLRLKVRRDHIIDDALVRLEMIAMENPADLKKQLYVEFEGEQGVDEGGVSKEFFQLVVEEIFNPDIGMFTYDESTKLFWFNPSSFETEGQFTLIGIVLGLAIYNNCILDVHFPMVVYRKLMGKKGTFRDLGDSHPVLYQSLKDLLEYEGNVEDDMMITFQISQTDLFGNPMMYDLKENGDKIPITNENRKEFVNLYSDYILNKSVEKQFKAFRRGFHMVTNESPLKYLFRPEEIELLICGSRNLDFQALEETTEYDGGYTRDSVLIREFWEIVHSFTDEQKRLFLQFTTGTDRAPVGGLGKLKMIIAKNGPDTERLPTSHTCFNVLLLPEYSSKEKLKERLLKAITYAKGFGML

Bridge positions count the residues as written; N and C are the ends. Square brackets hold non-standard residues; d marks the D form. Peptide text beside a SMILES is read from it. NMeF = CN[C@@H](Cc1ccccc1)C(=O)O; NMeS = CN[C@@H](CO)C(=O)O; Sar = CNCC(=O)O

For `CC(=O)N[C@H](Cc1c[nH]c2ccccc12)C(=O)N[C@@H](CS)C(=O)N[C@@H](CC(=O)O)C(=O)N[C@H](C(=O)N(C)[C@@H](CO)C(=O)NCC(=O)N[C@@H](CCCNC(=N)N)C(=O)N(C)[C@@H](Cc1ccccc1)C(=O)N(C)CC(=O)N[C@@H](Cc1ccc(O)cc1)C(=O)N(C)[C@@H](Cc1ccccc1)C(=O)N1CCC[C@H]1C(=O)N[C@@H](CS)C(=O)NCC(N)=O)C(C)C` [MLP11] (Ac-[dW]CDV[NMeS]GR[NMeF][Sar]Y[NMeF]PCG-NH2), the “difference in the binding ability” value at E6AP-HECT [1] (KD of MLP11 relative to MCP11) is given as at least 200 times. Take `CC(=O)N[C@H](Cc1c[nH]c2ccccc12)C(=O)N[C@@H](CS)C(=O)N[C@@H](CC(=O)O)C(=O)N[C@H](C(=O)N(C)[C@@H](CO)C(=O)NCC(=O)N[C@@H](CCCNC(=N)N)C(=O)N(C)[C@@H](Cc1ccccc1)C(=O)N(C)CC(=O)N[C@@H](Cc1ccc(O)cc1)C(=O)N(C)[C@@H](Cc1ccccc1)C(=O)N1CCC[C@H]1C(=O)N[C@@H](CS)C(=O)NCC(N)=O)C(C)C` [MLP11:, CH3CO-wCDV^MeSGR^MeF^MeGY^MeFPCG-NH2] (Ac-[dW]CDV[NMeS]GR[NMeF][Sar]Y[NMeF]PCG-NH2): the Kd (in general, the free concentration of one partner at which half of the binding sites on the other are occupied at equilibrium, for simple one-to-one binding) at E6AP-HECT [2] lay in the range of 100 to 1000 nM. As for `CC(C)[C@@H]1NC(=O)[C@H](CC(=O)O)NC(=O)[C@H](CS)NC(=O)[C@@H](Cc2c[nH]c3ccccc23)NC(=O)CSC[C@@H](C(=O)NCC(N)=O)NC(=O)[C@@H]2CCCN2C(=O)[C@H](Cc2ccccc2)N(C)C(=O)[C@H](Cc2ccc(O)cc2)NC(=O)CN(C)C(=O)[C@H](Cc2ccccc2)N(C)C(=O)[C@H](CCCNC(=N)N)NC(=O)CNC(=O)[C@H](CO)N(C)C1=O` [MCP11, Cyclo(-Ac-^DWCDV^MeSGR^MeF^MeGY^MeFPC)G-OH] ({CH2CO}-[dW]CDV[NMeS]GR[NMeF][Sar]Y[NMeF]PCG-NH2; thioether N-13), on E6AP-HECT [1] (surface plasmon resonance, Avi-His-GB1-E6AP-HECT fixed as ligand, peptide as analyte), the Kd amounted to 0.5 nM.
